Assay [1] has as its system Hepatitis C virus. The experiment in a line: Anti-viral activity test (HCVcc, Type 2a), JFH 5a-Rluc luciferase in Huh7.5.1 cell line. The settings on record: for inhibition: Huh-7.5.1, luciferase activity, negative control = 100%, Huh7.5.1 cells infected with JFH 5a-Rluc, read-out: HCV inhibition rate %; for EC50: Huh-7.5.1, read-out: EC50 (concentration of compound to inhibit the 50% of viral growth). Format: cell-based. The protocol:
The inhibitory effect of the oxazolidinone compounds on HCV replicon and NS5A were HCV was tested by the method disclosed in KR-A 10-2010-0007937 or US-A 2010/0215696.
The cell lines containing replicon were prepared by preparing JFH 5a-Rluc (plasmid expressing Renilla luciferase reporter protein) RNA according to the method disclosed in the documents, introducing the JFH 5a-Rluc RNA into host cell lines (Huh7.5.1 cell line) by electroporation and infecting the host cell lines (Zhnog et al., Proc. Natl. Acad. Sci. USA, 102, 9294-9299). After the infected cell lines were cultured with or without the treatment of the oxazolidinone compound, the luciferase activity was detected to obtain the inhibitory effect of […] replicon replication. EC50) of the compound was determined by performing the test at various concentrations of the compound.
The compounds Example 1 to 17 were tested for anti-viral activity on Hepatitis C virus, according to the method of KR10-2010-0007937 (published on Jan. 22, 2010) or US2010/0215696 (published on Aug. 26, 2010).
The cell lines containing replicon were prepared by preparing JFH 5a-Rluc (plasmid expressing Renilla luciferase reporter protein) RNA according to the method disclosed in the documents, introducing the JFH 5a-Rluc RNA into host cell lines (Huh7.5.1 cell line) by electroporation and infecting the host cell lines (Zhnog et al., Proc. Natl. Acad. Sci. USA, 102, 9294-9299). After the infected cell lines were cultured with or without the treatment of 1 mM of the oxazolidinone compounds of Examples 1 to 17, the host cell lines were obtained on 1, 2 and 3 days after treatment, and the luciferase activity produced from the host cells was measured.
The luciferase activity of negative control which was not treated with the oxazolidinone compound is set to 100%. At various amounts of the oxazolidinone compounds, the luciferase activities were calculated based on the negative control to obtain the inhibition rate of HCV (%). The positive control was Interferon (INF)(Sigma, SRP4595).

For assay [2], the system named is Hepatitis C virus. The description is as above. As to conditions: for inhibition at 0.001 µM: Hepatitis C virus, Huh-7.5.1, read-out: inhibition rate; for remnant HCV amount: treated at a concentration of 1 nM. The class given is cell-based, Hepatitis C virus (HCVcc.

The inhibition is the relative decrease from the control value, in per cent. As for `CC(C)(C)OC(=O)N1CCC[C@H]1c1ncc(-c2ccc(-c3ccc(N4C[C@H](Cn5ccnn5)OC4=O)cc3F)cc2)[nH]1` [Example 1, tert-Butyl(S)-2-(5-(4′-((R)-5-((1H-1,2,3-triazol-1-yl)methyl)-2-oxooxazolidin-3-yl)-2′-fluoro-[1,1′-biphenyl]-4-yl)-1H-imidazol-2-yl)pyrrolidine-1-carboxylate], the inhibition in the assay on Hepatitis C virus [1] came to 31.7%.

On to `CC(=O)N1CCC[C@H]1c1ncc(-c2ccc(-c3ccc(N4C[C@H](Cn5ccnn5)OC4=O)cc3F)cc2)[nH]1` [Example 2, (R)-5-((1H-1,2,3-Triazol-1-yl)methyl)-3-(4′-(2-((S)-1-acetylpyrrolidin-2-yl)-1H-imidazol-5-yl)-2-fluoro-[1,1′-biphenyl]-4-yl)oxazolidin-2-one], for which the inhibition in the assay with Hepatitis C virus [1] was 32%.

`COC(=O)N[C@H](C(=O)N1CCC[C@H]1c1ncc(-c2ccc(-c3ccc(N4C[C@H](Cn5ccnn5)OC4=O)cc3F)cc2)[nH]1)C(C)C` [Example 3, Methyl ((S)-1-((S)-2-(5-(4′-((R)-5-((1H-1,2,3-triazol-1-yl)methyl)-2-oxooxazolidin-3-yl)-2′-fluoro-[1,1′-biphenyl]-4-yl)-1H-imidazol-2-yl)pyrrolidin-1-yl)-3-methyl-1-oxobutan-2-yl)carbamate]: in the assay with Hepatitis C virus [2], the inhibition at 0.001 µM was found to be 78.9% and the “remnant HCV amount” value is recorded as 21.1%. For the same molecule, in the assay on Hepatitis C virus [1], the inhibition came out at 99.8% and the EC50 was 0.98 nM.

Regarding `COC(=O)N[C@H](C(=O)N1CCC[C@H]1c1ncc(-c2ccc(-c3ccc(N4C[C@H](Cn5ccnn5)OC4=O)cc3F)cc2)[nH]1)c1ccccc1` [Example 4, methyl ((S)-2-((S)-2-(5-(4′-((R)-5-((1H-1,2,3-triazol-1-yl)methyl)-2-oxooxazolidin-3-yl)-2′-fluoro-[1,1′-biphenyl]-4-yl)-1H-imidazol-2-yl)pyrrolidin-1-yl)-2-oxo-1-phenylethyl)carbamate], in the assay on Hepatitis C virus [1], the inhibition was 95.2%.

Consider `COC(=O)N[C@H](C(=O)N1CCC[C@H]1c1ncc(-c2ccc(-c3ccc(N4C[C@H](Cn5cc(CO)nn5)OC4=O)cc3F)cc2)[nH]1)C(C)C` [Example 5, Methyl ((S)-1-((S)-2-(5-(2′-fluoro-4′-((R)-5-((4-(hydroxymethyl)-1H-1,2,3-triazol-1-yl)methyl)-2-oxooxazolidin-3-yl)-[1,1′-biphenyl]-4-yl)-1H-imidazol-2-yl)pyrrolidin-1-yl)-3-methyl-1-oxobutan-2-yl)carbamate], for which the inhibition with Hepatitis C virus [1] is 95.8%.

On to `COC(=O)N[C@H](C(=O)N1CCC[C@H]1c1ncc(-c2ccc(-c3ccc(N4C[C@H](Cn5cc(CCO)nn5)OC4=O)cc3F)cc2)[nH]1)C(C)C` [Example 6, Methyl ((S)-1-((S)-2-(5-(2′-fluoro-4′-((R)-5-((4-(2-hydroxyethyl)-1H-1,2,3-triazol-1-yl)methyl)-2-oxooxazolidin-3-yl)-[1,1′-biphenyl]-4-yl)-1H-imidazol-2-yl)pyrrolidin-1-yl)-3-methyl-1-oxobutan-2-yl)carbamate], for which the inhibition in the assay with Hepatitis C virus [1] is 84.4%.

Take `COCc1cn(C[C@H]2CN(c3ccc(-c4ccc(-c5cnc([C@@H]6CCCN6C(=O)[C@@H](NC(=O)OC)C(C)C)[nH]5)cc4)c(F)c3)C(=O)O2)nn1` [Example 7, Methyl ((S)-1-((S)-2-(5-(2′-fluoro-4′-((R)-5-((4-(methoxymethyl)-1H-1,2,3-triazol-1-yl)methyl)-2-oxooxazolidin-3-yl)-[1,1′-biphenyl]-4-yl)-1H-imidazol-2-yl)pyrrolidin-1-yl)-3-methyl-1-oxobutan-2-yl)carbamate]: the inhibition with Hepatitis C virus [1] was 83.3%.

On to `COC(=O)N[C@H](C(=O)N1CCC[C@H]1c1ncc(-c2ccc(-c3ccc(N4C[C@H](Cn5cc(COC(C)=O)nn5)OC4=O)cc3F)cc2)[nH]1)C(C)C` [Example 8, 1-(((R)-3-(2-Fluoro-4′-(2-((S)-1-((methoxycarbonyl)-L-valyl)pyrrolidin-2-yl)-1H-imidazol-5-yl)-[1,1′-biphenyl]-4-yl)-2-oxooxazolidin-5-yl)methyl)-1H-1,2,3-triazol-4-yl)methyl acetate], for which the inhibition with Hepatitis C virus [1] worked out at 79.8%.

Regarding `COC(=O)N[C@H](C(=O)N1CCC[C@H]1c1ncc(-c2ccc(-c3ccc(N4C[C@H](Cn5cc(COCc6ccccc6)nn5)OC4=O)cc3F)cc2)[nH]1)C(C)C` [Example 9, Methyl ((S)-1-((S)-2-(5-(4′-((R)-5-((4-((benzyloxy)methyl)-1H-1,2,3-triazol-1-yl)methyl)-2-oxooxazolidin-3-yl)-2′-fluoro-[1,1′-biphenyl]-4-yl)-1H-imidazol-2-yl)pyrrolidin-1-yl)-3-methyl-1-oxobutan-2-yl)carbamate], in the assay with Hepatitis C virus [2], the inhibition at 0.001 µM was 97% and the “remnant HCV amount” value is reported as 3.0%. Besides, in the assay on Hepatitis C virus [1], the inhibition turned out to be 97.3% and the EC50 was 17.4 nM.

Regarding `COC(=O)N[C@H](C(=O)N1CCC[C@H]1c1ncc(-c2ccc(-c3ccc(N4C[C@H](Cn5cc(CNC(C)=O)nn5)OC4=O)cc3F)cc2)[nH]1)C(C)C` [Example 10, Methyl ((S)-1-((S)-2-(5-(4′-((R)-5-((4-(acetamidomethyl)-1H-1,2,3-triazol-1-yl)methyl)-2-oxooxazolidin-3-yl)-2′-fluoro-[1,1′-biphenyl]-4-yl)-1H-imidazol-2-yl)pyrrolidin-1-yl)-3-methyl-1-oxobutan-2-yl)carbamate], in the assay on Hepatitis C virus [1], the inhibition was 32.8%.

With `COC(=O)N[C@H](C(=O)N1CCC[C@H]1c1ncc(-c2ccc(-c3ccc(N4C[C@H](Cn5cc(-c6ccccc6)nn5)OC4=O)cc3F)cc2)[nH]1)C(C)C` [Example 11, Methyl ((S)-1-((S)-2-(5-(2′-fluoro-4′-((R)-2-oxo-5-((4-phenyl-1H-1,2,3-triazol-1-yl)methyl)oxazolidin-3-yl)-[1,1′-biphenyl]-4-yl)-1H-imidazol-2-yl)pyrrolidin-1-yl)-3-methyl-1-oxobutan-2-yl)carbamate], in the assay on Hepatitis C virus [2], the inhibition at 0.001 µM came to 95.2% and the “remnant HCV amount” value is recorded as 6.8%. The inhibition in the assay with Hepatitis C virus [1] was determined as 96.7%.

With `COC(=O)N[C@H](C(=O)N1CCC[C@H]1c1ncc(-c2ccc(-c3ccc(N4C[C@H](CNC(C)=O)OC4=O)cc3F)cc2)[nH]1)C(C)C` [Example 12, Methyl ((S)-1-((S)-2-(5-(4′-((S)-5-(acetamidomethyl)-2-oxooxazolidin-3-yl)-2′-fluoro-[1,1′-biphenyl]-4-yl)-1H-imidazol-2-yl)pyrrolidin-1-yl)-3-methyl-1-oxobutan-2-yl)carbamate], in the assay with Hepatitis C virus [2], the inhibition at 0.001 µM amounted to 27% and the “remnant HCV amount” value was 73%. Moreover, in the assay on Hepatitis C virus [1], the inhibition is 99.8%.

For `CC(=O)NC[C@H]1CN(c2ccc(-c3ccc(-c4cnc([C@@H]5CCCN5C(=O)OC(C)(C)C)[nH]4)cc3)c(F)c2)C(=O)O1` [Example 13, tert-Butyl (S)-2-(5-(4′-((S)-5-(acetamidomethyl)-2-oxooxazolidin-3-yl)-2′-fluoro-[1,1′-biphenyl]-4-yl)-1H-imidazol-2-yl)pyrrolidine-1-carboxylate], in the assay with Hepatitis C virus [1], the inhibition was determined as 46.2%.

On to `CC(=O)NC[C@H]1CN(c2ccc(-c3ccc(-c4cnc([C@@H]5CCCN5C(C)=O)[nH]4)cc3)c(F)c2)C(=O)O1` [Example 14, N—(((S)-3-(4′-(2-((S)-1-acetylpyrrolidin-2-yl)-H-imidazol-5-yl)-2-fluoro-[1,1′-biphenyl]-4-yl)-2-oxooxazolidin-5-yl)methyl)acetamide], for which, in the assay with Hepatitis C virus [1], the inhibition is 28%.

Take `COC(=O)N[C@H](C(=O)NC[C@H]1CN(c2ccc(-c3ccc(-c4cnc([C@@H]5CCCN5C(=O)OC(C)(C)C)[nH]4)cc3)c(F)c2)C(=O)O1)C(C)C` [Example 16, tert-Butyl (S)-2-(5-(2′-fluoro-4′-((S)-5-(((S)-2-((methoxycarbonyl)amino)-3-methylbutanamido)methyl)-2-oxooxazolidin-3-yl)-[1,1-biphenyl]-4-yl)-1H-imidazol-2-yl)pyrrolidine-1-carboxylate]: the inhibition in the assay on Hepatitis C virus [1] worked out at 58%.

Take `COC(=O)N[C@H](C(=O)NC[C@H]1CN(c2ccc(-c3ccc(-c4cnc([C@@H]5CCCN5C(C)=O)[nH]4)cc3)c(F)c2)C(=O)O1)C(C)C` [Example 17, Methyl ((S)-1-((((S)-3-(4′-(2-((S)-1-acetylpyrrolidin-2-yl)-1H-imidazol-5-yl)-2-fluoro-[1,1′-biphenyl]-4-yl)-2-oxooxazolidin-5-yl)methyl)amino)-3-methyl-1-oxobutan-2-yl)carbamate]: the inhibition with Hepatitis C virus [1] was 38.1%.

The values are drawn from patent US9422274B2, “Oxazolidinone derivatives and composition for preventing or treating hepatitis C containing the same” (KOREA INSTITUTE OF SCIENCE AND TECHNOLOGY, priority 2013, dated 2016).
